The test system of data set [1] is Sprague-Dawley rats, STZ. Put plainly: Rat model of diabetic nephropathy (STZ, high fat diet). Format: in vivo. Particulars: XG-102 1, 2, 4 mg/kg iv weekly; Losartan 25 mg/kg po daily; 9 weeks. The text has this: Losartan has been used as a positive control. Seventy-four male Sprague-Dawley rats (200-250 g; including 4 spare animals) from Charles River (Margate, Kent) were used. […] The diet has been purchased from Research Diets, New Jersey, USA. […] Animals have been housed in pairs throughout the study. […] During the third week of habituation, a blood sample has been taken from the lateral tail vein in the freely fed state using a hand-held glucose meter (One Touch Ultra 2). Blood sampling began at approximately 09:00. […] About 40 animals have been assigned to Cohort A and the remaining 30 to Cohort B, balanced as far as possible for body weight, plasma glucose and food and water intake. […] For the 7-day period post STZ dose, animals have been weighed daily and food and water intake determined twice weekly. For the remaining study duration, animals have been weighed and water and food intake assessed twice weekly (always on the day of intravenous dosing and typically on water refill day(s)). […] Animals have been weighed prior to dosing (this weight was recorded). Food and water have been recorded on the same days as the intravenous groups (A-E) only. […] Creatinine, glucose, urea, total protein and electrolytes (Na, K, Cl and Ca) have been determined on urine samples using a COBAS […] and associated reagents (n=2 for all urine analyses). […] Food consumed and water drunk has also been calculated. […]

Data set [2] has as its system gerbil, transient global ischemia. To be noted: Carboni et al. 2004; cited from earlier work.
Data set [3] concerns primary embryonic cultures and differentiated PC12 cells. To be noted: after trophic withdrawal; cited from earlier work.

Take `CCCCc1nc(Cl)c(CO)n1Cc1ccc(-c2ccccc2-c2nn[nH]n2)cc1` [Losartan]: the body weight result in data set [1] is on record as “has been significantly lower”.
With `N#CC(c1ccnc(NCCc2cccnc2)n1)c1nc2ccccc2s1` (stereo not drawn) [AS601245], the “delayed loss of hippocampal CA1 neurons” value in data set [2] was “provided significant protection against the delayed loss of hippocampal CA1 neurons”.
As for `CCSCc1ccc2c(c1)c1c3c(c4c5cc(CSCC)ccc5n5c4c1n2[C@H]1C[C@](O)(C(=O)OC)[C@]5(C)O1)CNC3=O` [CEP-1347], the neuronal survival entry in data set [3] is on record as “promotes neuronal survival at dosages that inhibit activation of the c-Jun amino-terminal kinases (JNKs)”.

These data come from patent US11779628B2, “Use of cell-permeable peptide inhibitors of the JNK signal transduction pathway for the treatment of various diseases” (Xigen Inflammation Ltd., priority 2014, dated 2023).
